The record followed here is patent US11365193B2, “Oxadiazole compound and fungicide for agricultural and horticultural use” (Nippon Soda Co., Ltd., priority 2017, dated 2022).

For the test, the system named is wheat red rust pathogen (Puccinia recondita). As to the kind of experiment: Test Example 1: wheat red rust disease control test (100 ppm). The format is in vivo. Particulars: 100 ppm by mass sprayed on wheat young seedlings (Norin 61), inoculated after air-drying; blotch area ratio 12 days after inoculation. The protocol: 5 parts by, mass of an oxadiazole compound, 93.5 parts by mass of dimethylformamide, and 1.5 parts by mass of polyoxyethylene alkyl aryl ether were mixed and dissolved to obtain an emulsion (I) containing 5% by mass of the active ingradient.
The control value was calculated by the following formula. Control value (%)=100-{blotch area ratio in treated area/blotch area ratio in untreated area}×100
Water was added to the emulsion (I) such that the concentration of the oxadiazole compound became 100 ppm by mass, and then the oxadiazole compound was dissolved to obtain a pharmaceutical solution. Then, the pharmaceutical solution was sprayed on wheat young seedings (variety “Norin 61” at the first to second leaf stage) grown in nursery pots. After air-drying, the wheat young seedings sprayed with the pharmaceutical solution were inoculated with summer spores of wheat red rust pathogen (Puccinia recondita) by spraying the summer spores (in treated area).
As a control, wheat young seedings that were not sprayed with the pharmaceutical solution were inoculated in the same manner as mentioned above (in untreated area).
The wheat young seedings were placed under humid conditions at 20° C. for 1 day. […] After 12 days passed from inoculation, leaves of the wheat seedings were visually observed to measure the blotch area ratio, and the control value was calculated.

Structures are written as SMILES.

Regarding `C[S+]([O-])CCOc1cc(=O)n(Cc2ccc(-c3noc(C(F)(F)F)n3)cc2)cn1` (stereo not shown) [Compound 2-75], the Control value is given as 2-75%.
